“And” between values parts separate entries of the source, which are not always exact repeats. Equal entries are not always repeated.
Experiments:
Format in all cases: cell-based, Chinese hamster
[1] = test system: DG44 CHO cells transfected with TRU-016; experiment: Effect of castanospermine on DG44 CHO TRU-016 production, 3 L bioreactors; details: for TRU-016 Produced as a % of Control: control average 427.7 ug/mL; for Viability at Harvest (%): harvest day 8
Procedure: Prior to growth in bioreactors, DG44 CHO cells transfected with TRU-016 were grown in the absence of castanospermine in vented shake flasks as described in Example 8.
For the bioreactor run, 3 L Applikon bioreactors were used. Growth media for cells was as described in Example 8 except that there was no methotrexate present. Starting culture volume for each bioreactor was 1700 mLs with a starting density of 3.5×10^5 cells/mL. A total of eight bioreactors were run in pairs with CS at 0 μM, 300 μM, 350 μM and 400 μM final concentration (one of the 400 μM CS bioreactors was lost to contamination on day 2 of culture). Castanospermine was added at the initiation of culture in the bioreactors with no further addition during the culture period. Other culture conditions included a temperature set point of 37° C., pH set point of 6.9 and dissolved O2 set point of 50%. Bioreactors were run in a fed-batch mode with L-glutamine and glucose added on an as needed basis. Soy hydrolysate (CHO Feed Bioreactor Supplement—C1615—Sigma) was added at 1% of starting culture volume on days 2, 4 and 6. Bioreactors were sampled daily for viable cell density, percent viable cells, media chemistries and osmolality. All cultures were harvested on day 8 when overall cell viability ranged from 39-50%.

[2] = test system: DG44 CHO cells transfected with TRU-016; experiment: Effect of castanospermine on DG44 CHO TRU-016 production, shake flasks; details: for Average TRU-016 Produced (ug/mL) ± SD: duplicate flasks
Procedure: Prior to initiation of the experiments, DG44 CHO cells transfected with TRU-016 were grown in shake flasks in Ex-Cell™ 302 CHO serum-free media (SAFC Biosciences) supplemented with 1× non-essential amino acids (MediaTech), 1× sodium pyruvate (MediaTech), 4 mM L-glutamine (MediaTech), 500 nM methotrexate (MP Biomedicals) and 1 mg/L recombinant insulin (Recombulin-GIBCO/Invitrogen Corp.) at 37° C. and 5% carbon dioxide in a humidified incubator. A 200 mM stock concentration of castanospermine (Alexis Biochemicals) was prepared by dilution of the castanospermine in sterile, distilled/deionized water (MediaTech) and filtration through a 13 mm Acrodisc® with a 0.2 μm HT Tuffryn membrane (Pall Corporation). Stock solution was aliquoted into sterile, O-ringed, 0.5 mL microcentrifuge tubes (Fisherbrand, Fisher Scientific) and frozen at −20° C. Approximately 1 hour prior to initiation of experiments, needed aliquots were thawed at room temperature and the contents of each vial mixed well by vortexing.
For each experiment, cells in log phase growth were seeded in the above medium into a total volume of 60 mL in 250 mL shaker flasks at a density of 200,000 cells/mL and CS added at the concentration to be tested. Final CS concentrations of 800 μM, 400 μM, 200 μM, 100 μM, 50 μM, 25 μM and 0 μM were each tested in duplicate flasks. All cultures were incubated at 37° C. and 5% carbon dioxide in a humidified incubator and monitored at least every other day for viable cell density and overall cell viability.
Cultures were harvested on day 8 when overall cell viability was 50-70% (Expt. 1) and 30-50% (Expt. 2). Cells and cellular debris were removed by centrifugation in a Sorvall Super T21 at 3000 rpm for 20 minutes after which the supernatant was sterile filtered through a Millipore Steriflip unit with a 0.22 μm Millipore Express Plus membrane and stored at 2-8° C. until purification.

[3] = test system: CHO cells expressing TRU-016; experiment: Growth and viability of CHO cells expressing TRU-016 cultured with carbohydrate modifier; details: castanospermine up to 1000 μM, up to 144 hours
Procedure: For shake flask runs, log phase host cells were seeded in shake flasks at 100,000 cells/ml with carbohydrate modifier at the concentration to be tested, and optionally with methotrexate (MTX) @ 50 nM.
Cells were seeded at 3×10^6/mL in 1350 mL of Ex-Cell 302 culture media (SATC Biosciences; with added non-essential amino acids, pyrucate, L-glutamine, pen/strep, HT Supplement and insulin, all from Invitrogen) at t=0 and brought to 5 L total volume at T>=72 hours. The cells were incubated at 37° C. and 5% carbon dioxide and monitored for growth and viability daily starting at day 6-7. Supernatants were typically harvested at day 10-12 when cell viability dropped below 60%.
Na-Azide was added to 0.02%, cells were removed by centrifugation and supernatant was filter sterilized through a 0.22 uM filter. Some assays described in other examples herein were performed on the supernatants as indicated, while other assays were performed on material that underwent further protein A purification. […] Cells were incubated at 37° C. and 5% carbon dioxide and monitored daily for growth and viability. […]

Compound: O[C@H]1[C@H](O)[C@@H](O)CN2CC[C@H](O)[C@H]12 [castanospermine]
- TRU-016 Produced as a % of Control ([1]; CS 300 μM, listed as CS): 68.0% and 75.1%
- Viability at Harvest (%) ([1]; CS 300 μM, listed as CS): 48.8% and 42.4%
- ICA (10^6 cells * days/mL) ([1]; CS 300 μM, listed as CS): 47.5 10^6 cells * days/mL and 46.2 10^6 cells * days/mL
- Specific Productivity (pg/cell/day) ([1]; CS 300 μM, listed as CS): 6.12 pg/cell/day and 6.96 pg/cell/day
- TRU-016 Produced ([1]; CS 300 μM, listed as CS): 291.0 µg/mL and 321.3 µg/mL
- TRU-016 Produced as a % of Control ([1]; CS 350 μM, listed as CS): 73.6% and 74.4%
- Viability at Harvest (%) ([1]; CS 350 μM, listed as CS): 39.0% and 41.6%
- ICA (10^6 cells * days/mL) ([1]; CS 350 μM, listed as CS): 46.6 10^6 cells * days/mL and 45.5 10^6 cells * days/mL
- Specific Productivity (pg/cell/day) ([1]; CS 350 μM, listed as CS): 6.75 pg/cell/day and 7.00 pg/cell/day
- TRU-016 Produced ([1]; CS 350 μM, listed as CS): 314.7 µg/mL and 318.1 µg/mL
- ICA (10^6 cells * days/mL) ([1]; CS 400 μM): 47.9 10^6 cells * days/mL
- Specific Productivity (pg/cell/day) ([1]; CS 400 μM): 6.49 pg/cell/day
- TRU-016 Produced ([1]; CS 400 μM): 311.0 µg/mL
- TRU-016 Produced as a % of Control ([1]; CS 400 μM): 72.7%
- Viability at Harvest (%) ([1]; CS 400 μM): 50.4%
- suppression of TRU-016 production relative to non-treated control bioreactors ([1]; CS 300-400 μM): 24.9-32%
- cell growth and viability in the bioreactors ([1]; CS 300-400 μM vs no CS): quite comparable
- Average TRU-016 Produced (ug/mL) ± SD ([2]; CS 25 μM): 180.31 ± 6.6 µg/mL
- ICA (Integral Cell Area) ([2]; CS 25 μM, listed as CS): 21.4 10^6 cells * days/mL and 21.1 10^6 cells * days/mL
- Specific Productivity ([2]; CS 25 μM, listed as CS): 8.22 pg/cell/day and 8.78 pg/cell/day
- Average TRU-016 Produced (ug/mL) ± SD ([2]; CS 50 μM): 176.63 ± 1.0 µg/mL
- ICA (Integral Cell Area) ([2]; CS 50 μM, listed as CS): 21.6 10^6 cells * days/mL and 21.4 10^6 cells * days/mL
- Specific Productivity ([2]; CS 50 μM, listed as CS): 8.15 pg/cell/day and 8.27 pg/cell/day
- ICA (Integral Cell Area) ([2]; CS 100 μM): 21.6 10^6 cells * days/mL
- Average TRU-016 Produced (ug/mL) ± SD ([2]; CS 100 μM): 161.83 ± 0.1 µg/mL
- Specific Productivity ([2]; CS 100 μM, listed as CS): 7.48 pg/cell/day and 7.49 pg/cell/day
- Average TRU-016 Produced (ug/mL) ± SD ([2]; CS 200 μM): 143.53 ± 1.4 µg/mL
- ICA (Integral Cell Area) ([2]; CS 200 μM, listed as CS): 21.9 10^6 cells * days/mL and 22.0 10^6 cells * days/mL
- Specific Productivity ([2]; CS 200 μM, listed as CS): 6.60 pg/cell/day and 6.47 pg/cell/day
- Specific Productivity ([2]; CS 400 μM): 5.48 pg/cell/day
- Average TRU-016 Produced (ug/mL) ± SD ([2]; CS 400 μM): 124.93 ± 1.4 µg/mL
- ICA (Integral Cell Area) ([2]; CS 400 μM, listed as CS): 23.0 10^6 cells * days/mL and 22.4 10^6 cells * days/mL
- Specific Productivity ([2]; CS 400 μM, listed as CS): 5.53 pg/cell/day
- Average TRU-016 Produced (ug/mL) ± SD ([2]; CS 800 μM): 99.65 ± 6.1 µg/mL
- ICA (Integral Cell Area) ([2]; CS 800 μM, listed as CS): 23.9 10^6 cells * days/mL and 23.8 10^6 cells * days/mL
- Specific Productivity ([2]; CS 800 μM, listed as CS): 3.99 pg/cell/day and 4.36 pg/cell/day
- cell viability and growth (integral cell area) ([2]; CS 25-800 μM): did not appear to be significantly affected
- cell counts [3]: did not affect
- percent cell viability [3]: did not affect

Source: US7846434B2, “Materials and methods for improved immunoglycoproteins” (Trubion Pharmaceuticals, Inc., priority 2006, dated 2010)
